Results taken from US7534809B2, “Phospho-indoles as HIV inhibitors” (priority 2004, dated 2009).
pEC50: −log10 of the molar value. Read-outs that look alike come from different tables or passages of the source.

Assays:
HIV BH-10 WT = test: Cell-based assay using BH-10 cells, wild type
HIV mutant strain Y181C = test: Cell-based assay using BH-10 cells, Y181C mutant
Procedure: (§1) In a typical embodiment, the NNRTIs display an EC50 in a mutant HIV strain of less than approximately 5, 2.5, 1 or 0.1 μM concentration. The degree of cross-resistance against a drug resistant strain of HIV is measured by assessing the EC50 of the desired oxo-pyrimidine compound in the target mutated, i.e., drug resistant, virus.
(§2) The degree of cross-resistance against a drug resistant strain of HIV can easily be measured by assessing the EC50 of the desired indole in the target mutated i.e., drug resistant, virus.

[1] = system: HIV mutant strain K103N/Y181C; test: Cell-based assay using BH-10 cells, K103N/Y181C mutant
Procedure: as §1, §2

[2] = Human immunodeficiency virus 1, read-out: EC50 WT///B, BH-10 cells, wild type
[3] = Human immunodeficiency virus 1, read-out: EC50 Y181C, BH-10 cells, Y181C mutant
[4] = Human immunodeficiency virus 1, read-out: EC50 K103N/Y181C, BH-10 cells, K103N/Y181C mutant
[5] = BH-10 cells, wild type, read-out: EC50 WT///B
[6] = BH-10 cells, Y181C mutant, read-out: EC50 Y181C
[7] = BH-10 cells, K103N/Y181C mutant, read-out: EC50 K103N/Y181C

| Structure (SMILES) | pEC50 (HIV BH-10 WT; [2]) | pEC50 (HIV mutant strain Y181C; [3]) | pEC50 [1, 4] | pEC50 (HIV BH-10 WT; [5]) | pEC50 (HIV mutant strain Y181C; [6]) | pEC50 [1, 7] |
| --- | --- | --- | --- | --- | --- | --- |
| COP(=O)(c1cccc(C(C)C)c1)c1c(C(=O)NCc2ccncc2)[nH]c2ccc(Cl)cc12 (stereo not drawn) [Compound 18aq] | 7.92 | 7.50 | 7.73 |  |  |  |
| COP(=O)(c1ccccc1)c1c(C(=O)NCc2cncn2C)[nH]c2ccc(Cl)cc12 (stereo not drawn) [Compound 18as] | 9.52 | 8.00 | 9.22 |  |  |  |
| COP(=O)(c1ccccc1)c1c(C(=O)NCc2ccco2)[nH]c2ccc(Cl)cc12 (stereo not drawn) [Compound 18at] | 8.74 | 8.82 | 9.30 |  |  |  |
| COc1cccc(P(=O)(OC)c2c(C(=O)NCc3ccco3)[nH]c3ccc(Cl)cc23)c1 (stereo not drawn) [Compound 18au] | 9.10 | 8.48 | 8.22 |  |  |  |
| COP(=O)(c1cc(C)cc(C)c1)c1c(C(=O)NCc2ccncc2)[nH]c2ccc(Cl)cc12 (stereo not drawn) [Compound 18ax] | 8.52 | 8.14 | 8.64 |  |  |  |
| COP(=O)(c1cc(C)cc(C)c1)c1c(C(=O)NCN2CCOCC2)[nH]c2ccc(Cl)cc12 (stereo not drawn) [Compound 18ay] | 8.46 | 7.70 | 8.03 |  |  |  |
| COP(=O)(c1cc(C)cc(C)c1)c1c(C(=O)NCc2ccccc2F)[nH]c2ccc(Cl)cc12 (stereo not drawn) [Compound 18az] | 8.52 | 7.78 | 8.07 |  |  |  |
| COP(=O)(c1cccc(C)c1)c1c(C(=O)NCc2ccco2)[nH]c2ccc(Cl)cc12 (stereo not drawn) [Compound 18b] | 8.44 | 8.00 | 8.40 |  |  |  |
| COP(=O)(c1cccc(CF)c1)c1c(C(=O)NCc2ccncc2)[nH]c2ccc(Cl)cc12 (stereo not drawn) [Compound 18c] | 8.70 | 8.54 | 8.33 |  |  |  |
| COP(=O)(c1cc(C)cc(F)c1)c1c(C(=O)NCc2ccncc2)[nH]c2ccc(Cl)cc12 (stereo not drawn) [Compound 18d] | 8.64 | 8.03 | 8.43 |  |  |  |
| COP(=O)(c1cc(F)cc(F)c1)c1c(C(=O)NCc2ccncc2)[nH]c2ccc(Cl)cc12 (stereo not drawn) [Compound 18e] | 8.46 | 7.83 | 7.92 |  |  |  |
| COP(=O)(c1cc(C)cc(C)c1)c1c(C(=O)NCc2cccnc2)[nH]c2ccc(Cl)cc12 (stereo not drawn) [Compound 18f] | 8.64 | 8.23 | 8.47 |  |  |  |
| COP(=O)(c1cc(C)cc(C)c1)c1c(C(=O)NCCc2ccncc2)[nH]c2ccc(Cl)cc12 (stereo not drawn) [Compound 18g] | 7.94 | 7.51 | 8.01 |  |  |  |
| COP(=O)(c1cc(C)cc(C)c1)c1c(C(=O)NCc2ccncc2F)[nH]c2ccc(Cl)cc12 (stereo not drawn) [Compound 18h] | 8.77 | 7.84 | 8.37 |  |  |  |
| COP(=O)(c1cc(C)cc(C)c1)c1c(C(=O)NCc2cnccn2)[nH]c2ccc(Cl)cc12 (stereo not drawn) [Compound 18i] | 8.52 | 7.77 | 8.74 |  |  |  |
| COP(=O)(c1cc(C)cc(C)c1)c1c(C(=O)NCc2cncnc2)[nH]c2ccc(Cl)cc12 (stereo not drawn) [Compound 18j] |  |  |  | 8.44 | 8.29 | 8.72 |
| COP(=O)(c1cc(C)cc(C)c1)c1c(C(=O)NCc2ccc(Br)cc2)[nH]c2ccc(Cl)cc12 (stereo not drawn) [Compound 18k] | 7.41 | 6.99 | 7.30 |  |  |  |
| COP(=O)(c1cc(C)cc(C)c1)c1c(C(=O)NCc2ccncn2)[nH]c2ccc(Cl)cc12 (stereo not drawn) [Compound 18l] | 8.77 | 8.60 | 8.66 |  |  |  |
| COP(=O)(c1cc(C)cc(C)c1)c1c(C(=O)NCc2ccccc2N)[nH]c2ccc(Cl)cc12 (stereo not drawn) [Compound 18n] | 7.71 | 7.06 | 7.64 |  |  |  |
| COP(=O)(c1cc(F)cc(F)c1)c1c(C(=O)NCc2ccc(C#N)cc2)[nH]c2ccc(Cl)cc12 (stereo not drawn) [Compound 18q] | 8.52 | 7.45 | 7.27 |  |  |  |
| COP(=O)(c1cc(C)cc(C)c1)c1c(C(=O)NCc2ccncc2)[nH]c2ccc(Cl)c(F)c12 (stereo not drawn) [Compound 18r] | 8.42 | 7.78 | 8.44 |  |  |  |

| Structure (SMILES) | pEC50 (HIV BH-10 WT; [2]) | pEC50 (HIV mutant strain Y181C; [3]) | pEC50 [1, 4] | pEC50 (HIV BH-10 WT; [5]) | pEC50 (HIV mutant strain Y181C; [6]) | pEC50 [1, 7] |
| --- | --- | --- | --- | --- | --- | --- |
| COP(=O)(c1cc(F)cc(F)c1)c1c(C(=O)NCc2cc[n+]([O-])cc2)[nH]c2ccc(Cl)cc12 (stereo not drawn) [Compound 22a] | 8.51 | 7.28 | 7.95 |  |  |  |
| COP(=O)(c1cc(C)cc(C#N)c1)c1c(C(=O)NCc2cc[n+]([O-])cc2)[nH]c2ccc(Cl)cc12 (stereo not drawn) [Compound 22ak] | 8.15 | 8.17 | 7.96 |  |  |  |
| COP(=O)(c1cc(C)cc(C)c1)c1c(C(=O)NCc2ccc[n+]([O-])c2)[nH]c2ccc(Cl)cc12 (stereo not drawn) [Compound 22b] | 8.46 | 7.73 | 8.49 |  |  |  |
| COP(=O)(c1cc(C)cc(C)c1)c1c(C(=O)NCCc2cc[n+]([O-])cc2)[nH]c2ccc(Cl)cc12 (stereo not drawn) [Compound 22c] | 8.55 | 8.00 | 7.57 |  |  |  |
| COP(=O)(c1cc(C)cc(C)c1)c1c(C(=O)NCc2cc[n+]([O-])cc2F)[nH]c2ccc(Cl)cc12 (stereo not drawn) [Compound 22d] | 8.54 | 8.82 | 8.17 |  |  |  |
| COP(=O)(c1cc(C)cc(C)c1)c1c(C(=O)NCc2cnc[n+]([O-])c2)[nH]c2ccc(Cl)cc12 (stereo not drawn) [Compound 22g] | 8.68 | 7.97 | 8.52 |  |  |  |
| CCc1cc(C)cc(P(=O)(OC)c2c(C(=O)NCc3ccc[n+]([O-])c3)[nH]c3ccc(Cl)cc23)c1 (stereo not drawn) [Compound 22h] | 8.80 | 8.24 | 8.44 |  |  |  |
| COP(=O)(c1cc(C)cc(C)c1)c1c(C(=O)NCc2ccc[n+]([O-])c2)[nH]c2ccc(Cl)c(F)c12 (stereo not drawn) [Compound 22j] |  |  |  | 8.17 | 8.00 | 8.22 |
| COP(=O)(c1cc(C)cc(C)c1)c1c(C(=O)NCc2cc[n+](C)cc2)[nH]c2ccc(Cl)cc12 (stereo not drawn) [Compound 22l] | 8.21 | 6.57 | 7.11 |  |  |  |
| COP(=O)(c1cc(C)cc(C)c1)c1c(C(=O)NCc2cc[n+]([O-])cc2)[nH]c2ccc(Cl)c(F)c12 (stereo not drawn) [Compound 22m] | 8.68 | 8.59 | 8.72 |  |  |  |
| COP(=O)(c1cc(C)cc(C)c1)c1c(C(=O)NCc2cc[n+]([O-])cc2)[nH]c2ccc(Cl)cc12 (stereo not drawn) [Compound 22n] | 8.70 | 8.06 | 8.35 |  |  |  |
| COP(=O)(c1cc(C)cc(C)c1)c1c(C(=O)NCc2cccc[n+]2[O-])[nH]c2ccc(Cl)cc12 (stereo not drawn) [Compound 22p] | 8.72 | 7.29 | 7.75 |  |  |  |
| COP(=S)(c1ccccc1)c1c(C(N)=O)[nH]c2ccc(Cl)cc12 (stereo not drawn) [Compound 25b] | 9.40 | 7.38 | 7.05 |  |  |  |
| COP(=O)(c1cccc(/C=C/C#N)c1)c1c(C(N)=O)[nH]c2ccc(Cl)cc12 (stereo not drawn) [Compound 33a] | 8.49 | 8.70 | 8.47 |  |  |  |
| CCOP(=O)(c1cccs1)c1c(C(N)=O)[nH]c2ccc(Cl)cc12 (stereo not drawn) [Compound 51] | 8.66 | 7.28 | 7.18 |  |  |  |
| COP(=O)(c1ccsc1)c1c(C(N)=O)[nH]c2ccc(Cl)cc12 (stereo not drawn) [Compound 52a] | 9.30 | 8.82 | 8.20 |  |  |  |
| COP(=O)(c1cccs1)c1c(C(N)=O)[nH]c2ccc(Cl)cc12 (stereo not drawn) [Compound 52b] | 9.30 | 8.06 | 8.60 |  |  |  |
| COP(=O)(CC=C(C)C)c1c(C(N)=O)[nH]c2ccc(Cl)cc12 (stereo not drawn) [Compound 57b] | 9.10 | 7.88 | 6.76 |  |  |  |
| COP(=O)(c1cc(F)cc(F)c1)c1c(C(=O)NCC#N)[nH]c2ccc(Cl)cc12 (stereo not drawn) [Compound 59a] | 8.85 | 7.33 | 8.08 |  |  |  |
| COP(=O)(c1cc(F)cc(F)c1)c1c(C(=O)NCCC#N)[nH]c2ccc(Cl)cc12 (stereo not drawn) [Compound 59b] | 8.46 | 7.16 | 7.67 |  |  |  |
